This is an account of results in patent publication US7091199B1, “Thienoisoxazole phenoxy unsubstituted ethyl and propyl derivatives useful as d4 antagonists” (Aventis Pharmaceuticals Inc., priority 1999, dated 2006).

Series [1] concerns the target human D4 receptor with seven repeat units (D4.7 variant). As to conditions: read-out: EC50 of dopamine; cited from earlier work.
The test system of a further series is D4.2 variant. The settings on record: read-out: EC50 of dopamine; cited from earlier work.
For series [2], the target named is T1, human D4 receptor (D4.2 sub-type) (Homo sapiens, UniProt P21917, DEL271-302).
T1 sequence (P21917 with tags, fused parts or gaps DEL271-302): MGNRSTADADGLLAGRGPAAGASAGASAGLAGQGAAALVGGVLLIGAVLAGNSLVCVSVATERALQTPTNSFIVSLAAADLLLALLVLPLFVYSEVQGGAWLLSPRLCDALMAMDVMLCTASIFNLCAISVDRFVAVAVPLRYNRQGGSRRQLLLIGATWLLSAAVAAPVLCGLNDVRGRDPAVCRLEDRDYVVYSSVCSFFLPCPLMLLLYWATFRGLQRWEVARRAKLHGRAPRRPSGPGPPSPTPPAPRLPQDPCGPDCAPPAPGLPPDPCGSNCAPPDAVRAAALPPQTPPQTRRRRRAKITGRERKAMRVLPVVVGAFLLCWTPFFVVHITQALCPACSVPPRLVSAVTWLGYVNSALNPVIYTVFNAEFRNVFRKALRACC
The series can be described thus: D4 receptor binding assay (3H-spiperone displacement). As to conditions: 3H-spiperone 0.25 nM, HEK cell membranes, human D4.2; read-out: D4 RBA Ki. As to the method:
D4 receptor-binding affinities of the compounds were evaluated according to their ability to reduce binding of ^3H-spiperone as compared to the reference compound clozapine. The potency of the test compound to reduce ^3H-spiperone binding directly correlated to its binding affinity for the receptor.
[…] (human embryonic kidney) cells stably transfected with human D4 receptor (D4.2 sub-type) were grown in NUNC cell factories for 5 days (75% confluency) without a media change and removed with versene (approximately 19 mg of cells per cell factory tray). The cells were then centrifuged in a Sorval centrifuge for 10 min, 5000 rpm (GS3 rotor) and the pellets quickly frozen in liquid nitrogen and stored at −80° C. until used in binding assay. When used in the assay, cells were thawed on ice for 20 min and then 10 mL of incubation buffer (50 mM Tris, 1 mM EDTA, 4 mM MgCl2, 5 mM KCl, 1.5 mM CaCl2, 120 mM NaCl, pH 7.4) was added. The cells were then vortexed to resuspend pellet and homogenized with a Kinematica, CH-6010 Kriens-LU, homogenizer for 15 seconds at setting 7. Concentration of receptor protein was determined using the Pierce BCA assay.
The incubation was started by the addition of 100 μl (50 μg protein) membrane homogenate to a solution of 300 μl incubation buffer and 100 μl (0.25 nM final conc.) ^3H-spiperone (90 Ci/mmol, Amersham, diluted in borosilicate glass vial) in 96-well polypropylene plates (1 mL per well). The plates were vortexed and incubated at room temperature for 90 minutes. The binding reaction was stopped by filtering using a Packard Harvester. The samples were filtered under vacuum over glass fibre filter plates (Whatman GF/B) presoaked for 2 hours in 0.3% polyethylenimine (PEI) in 50 mM Tris buffer (pH 7.4). The filters were then washed 6 times with 7 mL ice cold 50 mM Tris buffer (pH 7.4). The filter plates were dried overnight and 35 μl of Microscint-O (Packard) was added. The plates were sealed and counted in the Packard Top Count (3 minutes per well).
The incubation was started by the addition of 100 μl (50 μg protein) membrane homogenate to a solution of 200 μl incubation buffer, 100 μl ^3H-spiperone (90 Ci/mmol, Amersham, diluted in borosilicate glass vial to 0.25 nM final conc.) and 100 μl (30 μM final conc.) of fresh dopamine (Research Biochemicals Inc., light protected and dissolved in incubation buffer) in 96-well polypropylene plates (1 mL per well). The plates were vortexed and incubated at room temperature for 90 minutes at which time the binding reaction was stopped by filtering. The filters were washed and counted using the same procedure as in the total binding assay described above to give the non-specific binding value (NSB).
The incubation was started by the addition, in 96-well polypropylene plates (1 mL per well), of 100 μl (50 μg protein) membrane homogenate to a solution of 200 μl incubation buffer, 100 μl (0.25 nM final conc.) ^3H-spiperone (90 Ci/mmol, Amersham, diluted in borosilicate glass vial) and 100 μl of test compound that was prepared from 1 mM stock dissolved in DMSO and stored at −20° C. in polypropylene cryogenic storage vials until dilution in incubation buffer in 96-well polypropylene plates. The plates were vortexed and incubated at room temperature for 90 minutes at which time the binding reaction was stopped by filtering. The filters were washed and counted using the same procedure as in the total binding assay described above to give the displacement binding value (BD).
The test compounds were initially assayed at 1 and 0.1 μM and then at a range of concentrations chosen such that the middle dose would cause about 50% inhibition of ^3H-spiperone binding. Specific binding in the absence of test compound (B0) was the difference of total binding (BT) minus non-specific binding (NSB) and similarly specific binding (in the presence of test compound) (B) was the difference of displacement binding (BD) minus non-specific binding (NSB). […]

The subject of series [3] is CD-1 or C57 male mice (MK-801 induced stereotypy). Put plainly: MK-801 Stereotypy in Mice. It is filed as in vivo. As to conditions: for inhibition in vivo at 20 mg/kg / ED50: Mus musculus; for inhibition in vivo at 20 mg/kg: read-out: Antag. of MK 801 Stereotypy % Inhib. @ 20 mg/kg; for ED50: MK-801 stereotypy, read-out: In Vivo ED50. As to the method:
Mk-801 dose-dependently induces characteristic stereotypy marked by locomotion and falling behavior. This MK-801 induced behavior can be antagonized by novel neuroleptic agents. This assay can also assess time course effects following drug administration.
CD-1 or C57 male mice are individually placed in activity boxes (8 mice/drug) and allowed to acclimate for 60 minutes. The mice are then administered test compounds either i.p., s.c., or p.o., at 15, 30, or 60 minutes prior to MK-801 (0.2 mg/kg) administration. Mice are observed for the presence of locomotion and falling behaviors 15 minutes following MK-801. For the duration of action studies the test compounds are administered i.p., s.c., or p.o., at 30, 60, 120, 180, and 240 minutes prior to MK-801 administration.

Read-outs that look alike come from different tables or passages of the source.

As for `NCCc1ccc(O)c(O)c1` [dopamine], the results for the EC50 (in series [1]; with D4.2 variant) were 40 nM and 15 nM, respectively.
In the case of `Fc1cccc(CNCCOc2cccc(-c3noc4ccsc34)c2)c1.O=C(O)/C=C\C(=O)O` [Compound 32, (3-fluoro-benzyl)-[2-(3-thieno[2,3-d]isoxazol-3-yl-phenoxy)-ethyl]-amine maleate], the Ki in series [2] came out at 10.5 nM. Further, in series [3] (PO, 20 mg/kg), the “Antag. of MK 801 Stereotypy % Inhib. @ 20 mg/kg” value is reported as 62.5%.
As for `c1cnc(N2CCN(CCCOc3cccc(-c4noc5ccsc45)c3)CC2)nc1` [Compound 13, 3-{3-[3-(4-pyrimidin-2-yl-piperazin-1-yl)-propoxy]-phenyl}-thieno[2,3-d]isoxazole], in series [2], the Ki amounted to 55 nM. Further, in series [3] (ip, 20 mg/kg), the inhibition in vivo at 20 mg/kg amounted to 37.5%.
In the case of `c1cc(OCCCNCc2ccsc2)cc(-c2noc3ccsc23)c1` [Compound 7, [3-(3-thieno[2,3-d]isoxazol-3-yl-phenoxy)-propyl]-thiophen-3-yl-methylamine], in series [2], the Ki was found to be 18 nM. In addition, the inhibition in vivo at 20 mg/kg in series [3] (po, 20 mg/kg) came to 75%.
Take `Cl.c1ccc(CNCCCOc2cccc(-c3noc4ccsc34)c2)cc1` [Compound 1, benzyl-[3-(3-theino[2,3-d]isoxazol-3-yl-phenoxy)-propyl]-amine hydrochloride]: the melting point was 195 to 197 °C. Besides, the Ki in series [2] was determined as 12 nM. Besides, the 50% effective dose (ED50) in series [3] (PO) was determined as 14.6 mg/kg.
Regarding `Fc1ccc(CNCCOc2cccc(-c3noc4ccsc34)c2)cc1` [Compound 17, (4-fluoro-benzyl)-[2-(3-thieno[2,3-d]isoxazol-3-yl-phenoxy)-ethyl]-amine], in series [2], the Ki stood at 12 nM. The ED50 in series [3] (PO) was determined as 14.1 mg/kg. Moreover, in series [3] (po, 20 mg/kg), the inhibition in vivo at 20 mg/kg was 62.5%.
